The test has as its target human ACC2 (Homo sapiens (Human), UniProt O00763). In words: ACC2 assay (spectrophotometric 384 well assay, NADH-linked kinetic method). In kind it is biochemical. The following applies: hACC2 construct lacking 128 N-terminal amino acids; coupled lactate dehydrogenase/pyruvate kinase reaction, 340 nm, 25° C. An outline of the steps:
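Baculovirus/insect-cell human ACC2, anion-exchange purified; ADP formation coupled to pyruvate kinase/lactate dehydrogenase, NADH loss followed at 340 nm, 25° C, 15 min. Final 200 μM NADH and acetyl-CoA, 500 uM ATP; vehicle and no-acetyl-CoA wells set 100% and 0%.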

pIC50: −log10 of the molar value.

Sequence of human ACC2 (O00763 129-2458): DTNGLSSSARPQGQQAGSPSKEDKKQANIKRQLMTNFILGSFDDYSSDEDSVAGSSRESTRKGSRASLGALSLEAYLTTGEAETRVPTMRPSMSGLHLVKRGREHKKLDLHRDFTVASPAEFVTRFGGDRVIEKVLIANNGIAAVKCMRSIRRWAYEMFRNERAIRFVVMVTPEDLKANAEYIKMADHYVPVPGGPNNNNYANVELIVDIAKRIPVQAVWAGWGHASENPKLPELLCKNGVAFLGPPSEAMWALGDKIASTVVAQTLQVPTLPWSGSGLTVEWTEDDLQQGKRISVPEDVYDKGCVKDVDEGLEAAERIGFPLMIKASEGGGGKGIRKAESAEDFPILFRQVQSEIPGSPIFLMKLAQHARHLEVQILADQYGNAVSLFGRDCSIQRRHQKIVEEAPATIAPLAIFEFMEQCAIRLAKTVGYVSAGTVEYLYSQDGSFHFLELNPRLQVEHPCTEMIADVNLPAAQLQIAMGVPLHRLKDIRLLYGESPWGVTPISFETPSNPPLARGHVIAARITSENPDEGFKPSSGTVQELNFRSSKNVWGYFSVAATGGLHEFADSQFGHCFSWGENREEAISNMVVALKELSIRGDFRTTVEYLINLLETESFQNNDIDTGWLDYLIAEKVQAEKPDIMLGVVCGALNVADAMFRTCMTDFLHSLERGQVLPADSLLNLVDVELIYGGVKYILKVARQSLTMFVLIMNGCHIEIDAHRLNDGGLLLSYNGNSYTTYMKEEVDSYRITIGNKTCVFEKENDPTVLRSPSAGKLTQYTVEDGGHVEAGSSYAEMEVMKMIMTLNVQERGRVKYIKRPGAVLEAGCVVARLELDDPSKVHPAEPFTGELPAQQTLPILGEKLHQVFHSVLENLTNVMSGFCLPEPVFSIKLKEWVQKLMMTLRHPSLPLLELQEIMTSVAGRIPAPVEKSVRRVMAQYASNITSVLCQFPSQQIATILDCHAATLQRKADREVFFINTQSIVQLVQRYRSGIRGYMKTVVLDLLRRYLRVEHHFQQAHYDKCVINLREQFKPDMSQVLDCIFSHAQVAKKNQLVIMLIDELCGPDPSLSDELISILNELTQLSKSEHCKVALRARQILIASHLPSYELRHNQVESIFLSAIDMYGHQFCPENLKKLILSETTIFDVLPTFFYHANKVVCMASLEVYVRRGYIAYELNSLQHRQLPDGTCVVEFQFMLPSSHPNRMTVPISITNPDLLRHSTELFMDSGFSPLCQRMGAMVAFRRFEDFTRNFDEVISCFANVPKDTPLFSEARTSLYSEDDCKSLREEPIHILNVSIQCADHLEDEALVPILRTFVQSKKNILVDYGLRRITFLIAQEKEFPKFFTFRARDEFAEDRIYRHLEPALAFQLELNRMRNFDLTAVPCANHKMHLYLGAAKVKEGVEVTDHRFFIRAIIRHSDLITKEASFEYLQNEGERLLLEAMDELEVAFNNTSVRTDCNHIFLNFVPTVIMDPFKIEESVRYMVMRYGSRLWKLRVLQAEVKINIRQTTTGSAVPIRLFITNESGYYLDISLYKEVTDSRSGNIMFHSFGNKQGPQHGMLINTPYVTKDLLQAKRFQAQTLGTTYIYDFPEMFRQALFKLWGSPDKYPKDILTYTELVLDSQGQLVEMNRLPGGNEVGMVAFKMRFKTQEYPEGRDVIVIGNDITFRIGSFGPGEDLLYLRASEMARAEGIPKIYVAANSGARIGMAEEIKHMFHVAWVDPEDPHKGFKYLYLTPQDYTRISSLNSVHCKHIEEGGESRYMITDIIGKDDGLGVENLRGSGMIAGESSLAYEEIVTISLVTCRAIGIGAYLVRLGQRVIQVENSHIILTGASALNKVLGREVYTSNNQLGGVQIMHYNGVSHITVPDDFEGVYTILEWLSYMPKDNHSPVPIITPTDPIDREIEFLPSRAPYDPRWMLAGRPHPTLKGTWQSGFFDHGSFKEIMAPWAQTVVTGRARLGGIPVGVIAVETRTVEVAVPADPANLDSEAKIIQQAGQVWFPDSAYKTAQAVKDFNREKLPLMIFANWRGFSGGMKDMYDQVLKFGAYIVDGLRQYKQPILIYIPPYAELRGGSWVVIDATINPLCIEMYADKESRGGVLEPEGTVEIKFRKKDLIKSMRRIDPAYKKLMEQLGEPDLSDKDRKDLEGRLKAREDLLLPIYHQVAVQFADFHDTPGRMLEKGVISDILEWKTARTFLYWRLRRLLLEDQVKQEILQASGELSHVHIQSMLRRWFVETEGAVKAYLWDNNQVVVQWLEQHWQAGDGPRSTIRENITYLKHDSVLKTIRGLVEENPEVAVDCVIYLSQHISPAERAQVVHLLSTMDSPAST

One may read the pIC50 as the IC50 on a negative log10 scale, so that one unit is a factor of ten. Read a low pIC50 as a high IC50. `CC(=O)N[C@@H](C)c1ccc(O[C@@H]2CCN(c3nc(N4CCC(C)(O)C4)ncc3F)C2)cc1` (stereo partly shown) [Example 8.156]: the pIC50 was 6.82. With `CC(=O)N[C@@H](C)c1ccc(O[C@@H]2CCN(c3nc(N(C)C4CCOCC4)ncc3F)C2)cc1` [Example 8.157], the pIC50 was 6.98. In the case of `CC(=O)N[C@@H](C)c1ccc(O[C@@H]2CCN(c3nc(N(C)CCC(F)(F)F)ncc3F)C2)cc1` [Example 8.158], the negative logarithm of the IC50 (pIC50) is 7.25. With `CC(=O)N[C@@H](C)c1ccc(O[C@@H]2CCN(c3ncnc(N(C)CCC(F)(F)F)c3F)C2)cc1` [Example 8.159] the figure was 6.82; with `CC(=O)N[C@@H](C)c1ccc(O[C@@H]2CCN(c3ncnc(N4CCCC(F)(F)C4)c3F)C2)cc1` [Example 8.161], 6.42. `CC(=O)N[C@@H](C)c1ccc(O[C@@H]2CCN(c3ncnc(N4CC[C@@H](F)C4)c3F)C2)cc1` [Example 8.162] had a negative logarithm of the IC50 (pIC50) of 6.32. With `CC(=O)N[C@@H](C)c1ccc(O[C@@H]2CCN(c3cc(N4CCOCC4C)ncn3)C2)cc1` (stereo partly shown) [Example 8.163] the figure was 6.33; with `CC(=O)N[C@@H](C)c1ccc(O[C@@H]2CCN(c3nc(N(C)CC(C)C)ncc3F)C2)cc1` [Example 8.164], 6.99. As to `CC(=O)N[C@@H](C)c1ccc(O[C@@H]2CCN(c3nc(N(C)C[C@@H]4CCCO4)ncc3F)C2)cc1` [Example 8.165], the negative logarithm of the IC50 (pIC50) is 7.12. As for `CC(=O)N[C@@H](C)c1ccc(O[C@@H]2CCN(c3nc(N(C)C4CCCOC4)ncc3F)C2)cc1` (stereo partly shown) [Example 8.166], the figure is 6.98; as for `COCCCN(C)c1ncc(F)c(N2CC[C@@H](Oc3ccc([C@H](C)NC(C)=O)cc3)C2)n1` [Example 8.167], 7.00; as for `COCCCN(C)c1ncc(Cl)c(N2CC[C@@H](Oc3ccc([C@H](C)NC(C)=O)cc3)C2)n1` [Example 8.168], 6.76. With `CC(=O)N[C@@H](C)c1ccc(O[C@@H]2CCN(c3ccnc(N(C)CC(C)C)n3)C2)cc1` [Example 8.171] the figure was 6.76; with `CC(=O)N[C@@H](C)c1ccc(O[C@@H]2CCN(c3ncnc(N4CC5COCC5C4)c3F)C2)cc1` (stereo partly shown) [Example 8.172], 6.17. `CC(=O)N[C@@H](C)c1ccc(O[C@@H]2CCN(c3nc(N4[C@H](C)CCC[C@H]4C)ncc3Cl)C2)cc1` [Example 8.173] had a negative-log IC50 (pIC50) of 6.81.

Regarding `CC(=O)N[C@@H](C)c1ccc(O[C@@H]2CCN(c3nc(N4CCOC(C(F)(F)F)C4)ncc3Cl)C2)cc1` (stereo partly shown) [Example 8.174], the negative logarithm of the IC50 (pIC50) was 6.77. As for `CC(=O)N[C@@H](C)c1ccc(O[C@@H]2CCN(c3nc(N4CCc5nocc5C4)ncc3Cl)C2)cc1` [Example 8.175], the figure is 5.86.

For `CC(=O)N[C@@H](C)c1ccc(O[C@@H]2CCN(c3ncnc(N4CCOC(C)(C)C4)c3F)C2)cc1` [Example 8.176], the pIC50 is 6.17.

Turning to `COC[C@H](C)N(C)c1ncnc(N2CC[C@@H](Oc3ccc([C@H](C)NC(C)=O)cc3)C2)c1F` [Example 8.177], the pIC50 is 6.32. For `CCN(CCO)c1ncc(Cl)c(N2CC[C@@H](Oc3ccc([C@H](C)NC(C)=O)cc3)C2)n1` [Example 8.178], the negative logarithm of the IC50 (pIC50) is 6.41. As for `CC(=O)N[C@@H](C)c1ccc(O[C@@H]2CCN(c3ncnc(N4CCOC(C)C4)c3F)C2)cc1` (stereo partly shown) [Example 8.179], the figure is 6.45. `CC(=O)N[C@@H](C)c1ccc(O[C@@H]2CCN(c3ccnc(N(C)C4CCCOC4)n3)C2)cc1` (stereo partly shown) [Example 8.180] had a pIC50 of 6.56. With `CC(=O)N[C@@H](C)c1ccc(O[C@@H]2CCN(c3nc(N4CC[C@@H](F)C4)ncc3F)C2)cc1` [Example 8.181] the figure was 6.27. On to `COC[C@H]1CCCN1c1ncc(F)c(N2CC[C@@H](Oc3ccc([C@H](C)NC(C)=O)cc3)C2)n1` [Example 8.182], for which the pIC50 was 5.95. With `CC(=O)N[C@@H](C)c1ccc(O[C@@H]2CCN(c3nc(N4CCC(CO)C4)ncc3F)C2)cc1` (stereo partly shown) [Example 8.183] the figure was 6.09; with `CC(=O)N[C@@H](C)c1ccc(O[C@@H]2CCN(c3nc(N4CC[C@H](F)C4)ncc3F)C2)cc1` [Example 8.184], 6.66; with `CC(=O)N[C@@H](C)c1ccc(O[C@@H]2CCN(c3nc(N(C)CC(C)O)ncc3Cl)C2)cc1` (stereo partly shown) [Example 8.185], 6.12. The compound `CC(=O)N[C@@H](C)c1ccc(O[C@@H]2CCN(c3nc(N4CCOC(C)C4)ncc3Cl)C2)cc1` (stereo partly shown) [Example 8.186] showed a negative-log IC50 (pIC50) of 6.69. Compound `CC(=O)N[C@@H](C)c1ccc(O[C@@H]2CCN(c3nc(N4CCC(F)(F)CC4)ncc3Cl)C2)cc1` [Example 8.187] had a pIC50 of 6.66. Take `COC[C@@H]1CCN(c2ncc(Cl)c(N3CC[C@@H](Oc4ccc([C@H](C)NC(C)=O)cc4)C3)n2)C1` [Example 8.188]: the negative logarithm of the IC50 (pIC50) was 6.93. With `CC(=O)N[C@@H](C)c1ccc(O[C@@H]2CCN(c3nc(N4CCCC(F)(F)C4)ncc3Cl)C2)cc1` [Example 8.189], the negative logarithm of the IC50 (pIC50) was 6.50. As for `CC(=O)N[C@@H](C)c1ccc(O[C@@H]2CCN(c3nc(N(C)C4CCC4)ncc3F)C2)cc1` [Example 8.190], the figure is 7.39. With `CC(=O)N[C@@H](C)c1ccc(O[C@@H]2CCN(c3nc(N4CCC(C)(C)C4)ncc3Cl)C2)cc1` [Example 8.191], the pIC50 is 6.65. As for `CC(=O)N[C@@H](C)c1ccc(O[C@@H]2CCN(c3nc(N(C)CCOC(C)(C)C)ncc3Cl)C2)cc1` [Example 8.192], the figure is 6.19; as for `COC1CCN(c2ncc(F)c(N3CC[C@@H](Oc4ccc([C@H](C)NC(C)=O)cc4)C3)n2)CC1` [Example 8.193], 6.64; as for `CC(=O)N[C@@H](C)c1ccc(O[C@@H]2CCN(c3nc(N4CCC(C)(C)C4)ncc3F)C2)cc1` [Example 8.194], 6.89. With `CC(=O)N[C@@H](C)c1ccc(O[C@@H]2CCN(c3ccnc(N(C)C4CCOCC4)n3)C2)cc1` [Example 8.195] the figure was 6.41; with `CC(=O)N[C@@H](C)c1ccc(O[C@@H]2CCN(c3ccnc(N4CC=CC4)n3)C2)cc1` [Example 8.196], 6.56. With `COC[C@H]1CCCN1c1ncnc(N2CC[C@@H](Oc3ccc([C@H](C)NC(C)=O)cc3)C2)c1F` [Example 8.197] the figure was 6.13; with `CC(=O)N[C@@H](C)c1ccc(O[C@@H]2CCN(c3ncnc(N4CCOC(C(F)(F)F)C4)c3F)C2)cc1` (stereo partly shown) [Example 8.198], 6.26. With `CC(=O)N[C@@H](C)c1ccc(O[C@@H]2CCN(c3ncnc(N4CCC(C)(C)C4)c3F)C2)cc1` [Example 8.199], the pIC50 is 7.07. As for `CC(=O)N[C@@H](C)c1ccc(O[C@@H]2CCN(c3ncnc(N4CC(C)C4)c3F)C2)cc1` [Example 8.200], the figure is 6.45. As for `CC(=O)N[C@@H](C)c1ccc(O[C@@H]2CCN(c3ncnc(N4CCC(CO)C4)c3F)C2)cc1` (stereo partly shown) [Example 8.201], the figure is 6.53. As for `CC(=O)N[C@@H](C)c1ccc(O[C@@H]2CCN(c3ncnc(N4CCC(CO)C4)c3F)C2)cc1` (stereo partly shown) [Example 8.202], the figure is 6.14; as for `CC(=O)N[C@@H](C)c1ccc(O[C@@H]2CCN(c3ccnc(N(C)C[C@@H]4CCCO4)n3)C2)cc1` [Example 8.203], 6.48. In turn, `COC[C@H](C)N(C)c1nccc(N2CC[C@@H](Oc3ccc([C@H](C)NC(C)=O)cc3)C2)n1` [Example 8.204] showed a pIC50 of 6.02.

Values taken from patent US8962641B2, “Pyrimidine-substituted pyrrolidine derivatives, pharmaceutical compositions and uses thereof” (Boehringer Ingelheim International GmbH, priority 2013, dated 2015).
